Test systems include MCF7; NCI-H226; COLO 205; SF-268; A549; HOP-92; 786-0; Malme-3M; SK-MEL-2; SF-295; M14; SR; UO-31; OVCAR-5; SNB-75; HCC 2998; UACC-62; HCT-15; NCI-H460.
Common to all, as to experiment: NCI tumour cell line growth inhibition, 48 h

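These data come from cells grown in 96-well plates and exposed to compound for 48 hours at five concentrations. GI50 = concentration required for 50% inhibition of growth.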 Calls of active or inactive are those of the source. Cut-off read from the data, not from the text of the source: active = GI50 up to about 1.1 µM and inactive = higher.

Regarding `O=C(c1ccc(/N=C/c2ccccc2O)cc1)c1ccc(/N=C/c2ccccc2O)cc1`, the GI50 in the assay with MCF7 is > 100 µM (inactive); in the assay on NCI-H226 it was > 100 µM (inactive); in the assay on COLO 205 it was 30.1 µM (inactive); in the assay on SF-268, > 100 µM (inactive); in the assay with A549 it was > 100 µM (inactive); in the assay with HOP-92 it was > 100 µM (inactive). In addition, the GI50 with 786-0, in the assay on Malme-3M, in the assay on SK-MEL-2, in the assay on SF-295, with M14 and in the assay with SR was > 100 µM (inactive) each time. Besides, the GI50 in the assay on UO-31 is > 100 µM (inactive); with OVCAR-5 it was > 100 µM (inactive); with SNB-75, > 100 µM (inactive); with HCC 2998, > 100 µM (inactive); in the assay on UACC-62, > 100 µM (inactive); in the assay with HCT-15, more than 100 µM. Besides, in the assay on NCI-H460, the GI50 is > 100 µM (inactive).

Turning to `Cc1ccccc1N(CCC#N)C1=NN(C(=O)CC(=O)Nc2ccc(Cl)cc2)C(c2ccccc2)C1` (configuration not stated), the GI50 in the assay with NCI-H226, in the assay with COLO 205, with SF-268, in the assay on A549, with HOP-92 and with 786-0 was > 100 µM (inactive) in each case. Also, the GI50 in the assay with Malme-3M, in the assay on SK-MEL-2, in the assay on SF-295, with M14, in the assay with SR and with UO-31 was > 100 µM (inactive) throughout. Further, the GI50 in the assay on OVCAR-5 was > 100 µM (inactive); with SNB-75, > 100 µM (inactive); with HCC 2998, > 100 µM (inactive); in the assay on UACC-62 it was > 100 µM (inactive); in the assay on HCT-15, more than 100 µM; in the assay on NCI-H460 it was > 100 µM (inactive).

With `O=C(O)c1ccc([N+](=O)[O-])c(P(=O)(O)O)c1`, the GI50 in the assay on MCF7, in the assay on NCI-H226, in the assay on COLO 205, in the assay on A549, with HOP-92 and in the assay on 786-0 was > 100 µM (inactive) each time. In addition, the GI50 in the assay with SK-MEL-2, with SF-295, in the assay on M14, in the assay on SR, with UO-31 and with OVCAR-5 was > 100 µM (inactive) throughout. In addition, the figures for the GI50 with UACC-62, in the assay with HCT-15 and in the assay with NCI-H460 were > 100 µM (inactive), more than 100 µM and > 100 µM (inactive), respectively.

As for `CC(C)NC(=O)O/N=C1\CCC2[C@@H]3CC=C4C[C@@H](OC(=O)NC(C)C)CC[C@]4(C)C3CC[C@]12C` (some centres not stated), the GI50 in the assay on NCI-H226 was 18.1 µM (inactive); in the assay with COLO 205, 0.359 µM (active); with SF-268, 1.49 µM (inactive); in the assay on A549 it was 1.47 µM (inactive); in the assay with HOP-92, 2.08 µM (inactive); with 786-0, 1.61 µM (inactive). Further, the GI50 was 0.31 µM (active) in the assay on Malme-3M; 1.46 µM (inactive) with SK-MEL-2; 1.54 µM (inactive) in the assay on SF-295; 0.627 µM (active) in the assay on M14; 1.2 µM (inactive) with SR; 1.01 µM (active) in the assay on UO-31. For the same compound, the GI50 with OVCAR-5 is 0.748 µM (active); in the assay with SNB-75, 1.87 µM (inactive); with HCC 2998, 2.14 µM (inactive); with UACC-62 it was 1.3 µM (inactive); in the assay on HCT-15 it was 1.43 µM; in the assay with NCI-H460, 1.38 µM (inactive).

As for `CN(C)C1(C#N)CCC2(CC1)OCCO2`, the GI50 with NCI-H226, in the assay with COLO 205, with SF-268, in the assay with A549, with HOP-92 and with 786-0 was > 100 µM (inactive) each time. Also, the GI50 with Malme-3M, with SK-MEL-2, in the assay with SF-295, with M14, in the assay on SR and in the assay with UO-31 was > 100 µM (inactive) in each case. Further, the GI50 is > 100 µM (inactive) in the assay with OVCAR-5; > 100 µM (inactive) in the assay with SNB-75; > 100 µM (inactive) in the assay on HCC 2998; > 100 µM (inactive) in the assay with UACC-62; more than 100 µM in the assay on HCT-15; > 100 µM (inactive) with NCI-H460.

For the compound `C=Cc1cncc(C#N)c1CCc1c(C#N)cncc1C=C`, the GI50 in the assay with NCI-H226, in the assay with COLO 205, in the assay on SF-268, in the assay on A549, with HOP-92 and with 786-0 was > 10 µM (inactive) throughout. The GI50 in the assay with Malme-3M, in the assay on SK-MEL-2, in the assay on SF-295, in the assay with M14, in the assay on SR and with UO-31 was > 10 µM (inactive) in each case. The GI50 in the assay on OVCAR-5 is > 10 µM (inactive); in the assay with SNB-75, > 10 µM (inactive); in the assay with HCC 2998 it was > 10 µM (inactive); in the assay with UACC-62, > 10 µM (inactive); in the assay with HCT-15, more than 10 µM; with NCI-H460, > 10 µM (inactive).

As to `CCC1(CN(C)C)CC/C(=C\c2ccc(OC)c(OC)c2)C1=O` (configuration not stated), the GI50 with NCI-H226 was > 100 µM (inactive); in the assay on COLO 205 it was 76.6 µM (inactive); with SF-268, > 100 µM (inactive); with A549, > 100 µM (inactive); in the assay with HOP-92, > 100 µM (inactive); in the assay with 786-0, > 100 µM (inactive). Also, the GI50 was > 100 µM (inactive) in the assay with Malme-3M; > 100 µM (inactive) in the assay with SK-MEL-2; > 100 µM (inactive) in the assay with SF-295; > 100 µM (inactive) in the assay on M14; < 0.01 µM (active) in the assay with SR; > 100 µM (inactive) in the assay with UO-31. The GI50 with OVCAR-5 was > 69.5 µM (inactive); in the assay with SNB-75 it was > 67.8 µM (inactive); in the assay on HCC 2998, > 100 µM (inactive); in the assay on UACC-62, > 69.3 µM (inactive); in the assay on HCT-15, more than 100 µM; with NCI-H460, > 100 µM (inactive).

As to `COC(=O)C(=O)CC(=O)CCn1ncc(Cl)c(Cl)c1=O`, the GI50 with NCI-H226 is 24.2 µM (inactive); with COLO 205 it was 14.3 µM (inactive); in the assay on SF-268, 11.3 µM (inactive); in the assay on A549 it was 19.9 µM (inactive); in the assay with HOP-92 it was 15.7 µM (inactive); with 786-0, 21.7 µM (inactive). The GI50 in the assay on Malme-3M is 18.7 µM (inactive); with SK-MEL-2 it was 18.1 µM (inactive); with SF-295, 13.7 µM (inactive); in the assay with M14, 14.7 µM (inactive); in the assay with SR, 2.84 µM (inactive); in the assay on UO-31, 18.1 µM (inactive). In addition, the GI50 in the assay on OVCAR-5 is 19.2 µM (inactive); in the assay with SNB-75 it was 20.8 µM (inactive); in the assay on HCC 2998 it was 7.45 µM (inactive); with UACC-62, 10 µM (inactive); in the assay with HCT-15 it was 4.14 µM; in the assay on NCI-H460, 19.7 µM (inactive).

(Values after ChEMBL document CHEMBL1201862, “PubChem BioAssay data set” (2004).)
